Each structure is given as a SMILES string. *1 amine or outer side, *2 acyl side, *3 side chain or, on linkers, in order; H or OH if unused. Where a SMILES comes first, the peptide text is derived from it. [ ]: non-standard residue; d: D form. X1 = O=C([C@@H](O)[C@H](Cc1ccccc1)N[*:1])[*:2]; Thz(5,5-Me2) = CC1(C)SCN[C@@H]1C(=O)O A value given as a limit tells only on which side of the number the result lay.

The target in one experiment is Gag-Pro polyprotein (Human T-cell leukemia virus 1 (strain Japan ATK-1 subtype A) (HTLV-1), UniProt P10274, L40I). Kind of experiment: Inhibition of HTLV1 protease L40I mutant expressed in Escherichia coli BL21(DE3)pLysS. Set-up: species or system Human T-cell leukemia virus type I.
Gag-Pro polyprotein, sequence (P10274 450-574 L489I): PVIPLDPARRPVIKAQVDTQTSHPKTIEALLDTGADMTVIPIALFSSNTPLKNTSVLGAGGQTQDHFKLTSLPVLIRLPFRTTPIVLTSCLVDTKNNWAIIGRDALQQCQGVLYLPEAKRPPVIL
The target of experiment [1] is Protease (Human immunodeficiency virus 1) (UniProt Q9YQ12). Kind of experiment: Inhibition of HIV1 protease at 50 nM.
Protease (Human immunodeficiency virus 1), sequence (Q9YQ12 as listed by the source): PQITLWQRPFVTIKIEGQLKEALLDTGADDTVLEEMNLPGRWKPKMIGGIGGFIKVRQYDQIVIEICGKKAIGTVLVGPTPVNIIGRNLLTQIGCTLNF

In general, IC50 refers to the concentration needed to halve the response being measured. A lower IC50 goes with greater potency. In general, inhibition refers to the change of the read-out against control, counted positive when it falls. Low values mean a response near the control, high ones a response far below the control. With `CC[C@H](C)[C@H](NC(=O)[C@@H]1N(C(=O)[C@@H](O)[C@H](Cc2ccccc2)NC(=O)[C@@H](NC(=O)[C@@H](NC(C)=O)c2ccccc2)C(C)(C)C)CSC1(C)C)C(=O)N[C@@H](CCSC)C(N)=O`, at Gag-Pro polyprotein, inhibition was half-maximal at 101 nM (IC50). Besides, the inhibition in experiment [1] was 99%.

Regarding `CC[C@H](C)[C@H](NC(C)=O)C(=O)N[C@H](C(=O)N[C@@H](Cc1ccccc1)[C@H](O)C(=O)N1CSC(C)(C)[C@@H]1C(=O)N[C@H](C(=O)N[C@@H](Cc1ccccc1)C(N)=O)[C@@H](C)CC)[C@@H](C)CC`, at Gag-Pro polyprotein, it took 95 nM to reach half-maximal inhibition (IC50). For the same compound, the inhibition in experiment [1] amounted to 98%.

The compound `CC[C@H](C)[C@H](NC(C)=O)C(=O)N[C@H](C(=O)N[C@@H](Cc1ccccc1)[C@H](O)C(=O)N1CSC(C)(C)[C@@H]1C(=O)N[C@H](C(=O)N[C@@H](CCSC)C(N)=O)C(C)(C)C)[C@@H](C)CC` registered an IC50 on Gag-Pro polyprotein of 180 nM. In experiment [1], the inhibition amounted to 79%.

Regarding `CSCC[C@H](NC(=O)[C@@H](NC(=O)[C@H]1N(C(=O)[C@@H](O)[C@H](Cc2ccccc2)NC(=O)[C@@H](NC(=O)[C@H](CCC(N)=O)NC(=O)[C@@H]2CCCN2)C(C)C)CSC1(C)C)C(C)C)C(=O)N[C@@H](Cc1cnc[nH]1)C(=O)O` (H-PQV[X1][Thz(5,5-Me2)]VMH-OH), half-maximal inhibition against Gag-Pro polyprotein (IC50) required 152 nM.

At Gag-Pro polyprotein, `CSCC[C@H](NC(=O)[C@@H](NC(=O)[C@H]1N(C(=O)[C@@H](O)[C@H](Cc2ccccc2)NC(=O)[C@@H](NC(=O)[C@H](CCC(N)=O)NC(C)=O)C(C)C)CSC1(C)C)C(C)C)C(N)=O` (Ac-QV[X1][Thz(5,5-Me2)]VM-NH2) registered an IC50 of 353 nM. Moreover, the inhibition in experiment [1] was 96%.

On Gag-Pro polyprotein, `CC[C@H](C)[C@H](NC(C)=O)C(=O)N[C@H](C(=O)N[C@H](Cc1ccccc1)[C@H](O)C(=O)N1CSC(C)(C)[C@@H]1C(=O)N[C@H](C(=O)N[C@@H](CCSC)C(N)=O)[C@@H](C)CC)[C@@H](C)CC` showed an IC50 of 180 nM. For the same compound, in experiment [1], the inhibition came to 73%.

On Gag-Pro polyprotein, `CC[C@H](C)[C@H](NC(C)=O)C(=O)N[C@H](C(=O)N[C@@H](Cc1ccccc1)[C@H](O)C(=O)N1CSC(C)(C)[C@@H]1C(=O)N[C@H](C(=O)N[C@@H](C)C(N)=O)[C@@H](C)CC)[C@@H](C)CC` yielded an IC50 of 160 nM. In experiment [1], the inhibition came out at 82%.

In the case of `CC(=O)N[C@H](C(=O)N[C@H](C(=O)N[C@@H](Cc1ccccc1)[C@H](O)C(=O)N1CSC(C)(C)C1C(=O)NCC(C)(C)C)C(C)(C)C)c1ccccc1` (some centres undefined), the IC50 against Gag-Pro polyprotein is 113 nM. The compound further returned an inhibition in experiment [1] of 99%.

With `CC[C@H](C)[C@H](NC(=O)[C@@H]1N(C(=O)[C@@H](O)[C@H](Cc2ccccc2)NC(=O)[C@@H](NC(=O)[C@@H](NC(C)=O)c2ccccc2)C(C)(C)C)CSC1(C)C)C(=O)N[C@@H](CCC(N)=O)C(N)=O`, half-maximal inhibition at Gag-Pro polyprotein (IC50) required 84 nM. The compound also yielded an inhibition in experiment [1] of 98%.

Regarding `CC[C@H](C)[C@H](NC(C)=O)C(=O)N[C@@H](Cc1ccccc1)[C@H](O)C(=O)N1CSC(C)(C)[C@@H]1C(=O)N[C@H](C(=O)N[C@@H](CCSC)C(N)=O)[C@@H](C)CC`, on Gag-Pro polyprotein, the IC50 is over 1000 nM. In experiment [1], this compound gave an inhibition of 89%.

`CC[C@H](C)[C@H](NC(=O)[C@@H](NC(C)=O)C(C)(C)C)C(=O)N[C@@H](Cc1ccccc1)[C@H](O)C(=O)N1CSC(C)(C)[C@@H]1C(=O)N[C@H](C(=O)N[C@@H](CCSC)C(N)=O)[C@@H](C)CC` yielded an IC50 against Gag-Pro polyprotein of 201 nM. In experiment [1], this compound returned an inhibition of 98%.

As to `CC(=O)N[C@H](C(=O)N[C@H](C(=O)N[C@@H](Cc1ccccc1)[C@H](O)C(=O)N1CSC(C)(C)C1C(=O)NCc1cccc(I)c1)C(C)(C)C)c1ccccc1` (some centres undefined), inhibition against Gag-Pro polyprotein was half-maximal at 473 nM (IC50). The same compound registered an inhibition in experiment [1] of 97%.

Consider `CC[C@H](C)[C@H](NC(C)=O)C(=O)N[C@H](C(=O)N[C@@H](Cc1ccccc1)[C@H](O)C(=O)N1CSC(C)(C)[C@@H]1C(=O)N[C@H](C(=O)N[C@@H](CCSC)C(N)=O)[C@@H](C)CC)c1ccccc1`, for which the IC50 against Gag-Pro polyprotein is 320 nM. The inhibition in experiment [1] turned out to be 88%.

On Gag-Pro polyprotein, `CC[C@H](C)[C@H](NC(C)=O)C(=O)N[C@H](C(=O)N[C@@H](Cc1ccccc1)[C@H](O)C(=O)N1CSC(C)(C)[C@@H]1C(=O)N[C@H](C(=O)N[C@@H](CCSC)C(N)=O)[C@@H](C)CC)C(C)(C)C` showed an IC50 of 145 nM. This compound had an inhibition in experiment [1] of 97%.

Regarding `CC(=O)N[C@H](C(=O)N[C@H](C(=O)N[C@@H](Cc1ccccc1)[C@H](O)C(=O)N1CSC(C)(C)C1C(=O)NCC1CC1)C(C)(C)C)c1ccccc1` (some centres undefined), the IC50 on Gag-Pro polyprotein is 146 nM. The inhibition in experiment [1] is 99%.

On to `CSCC[C@H](NC(=O)[C@@H](NC(=O)[C@H]1N(C(=O)[C@@H](O)[C@H](Cc2ccccc2)NC(=O)[C@@H](NC(=O)[C@H](CCC(N)=O)NC(=O)[C@@H]2CCCN2)C(C)C)CSC1(C)C)C(C)C)C(=O)N[C@@H](Cc1c[nH]cn1)C(=O)O` (H-PQV[X1][Thz(5,5-Me2)]VMH-OH), for which the inhibition in experiment [1] amounted to 58%.

At Gag-Pro polyprotein, `CSCC[C@H](NC(=O)[C@@H](NC(=O)[C@@H]1CCCN1C(=O)[C@@H](O)[C@H](Cc1ccccc1)NC(=O)[C@@H](NC(=O)[C@H](CCC(N)=O)NC(=O)[C@@H]1CCCN1)C(C)C)C(C)C)C(=O)N[C@@H](Cc1cnc[nH]1)C(=O)O` (H-PQV[X1]PVMH-OH) came in with an IC50 of 159 nM. The inhibition in experiment [1] was under 30%.

At Gag-Pro polyprotein, `CCCNC(=O)C1N(C(=O)[C@@H](O)[C@H](Cc2ccccc2)NC(=O)[C@@H](NC(=O)[C@@H](NC(C)=O)c2ccccc2)C(C)(C)C)CSC1(C)C` (some centres undefined) showed an IC50 of 193 nM. The inhibition in experiment [1] was found to be 98%.

On to `CC(=O)N[C@H](C(=O)N[C@H](C(=O)N[C@@H](Cc1ccccc1)[C@H](O)C(=O)N1CSC(C)(C)C1C(=O)NCC(C)C)C(C)(C)C)c1ccccc1` (some centres undefined), for which the IC50 at Gag-Pro polyprotein is 107 nM. Also, the inhibition in experiment [1] was over 99%.

Consider `C=C(C)CNC(=O)C1N(C(=O)[C@@H](O)[C@H](Cc2ccccc2)NC(=O)[C@@H](NC(=O)[C@@H](NC(C)=O)c2ccccc2)C(C)(C)C)CSC1(C)C` (some centres undefined), for which it took 140 nM to reach half-maximal inhibition against Gag-Pro polyprotein (IC50). For the same compound, the inhibition in experiment [1] was over 99%.

Compound `CC[C@H](C)[C@H](NC(=O)[C@@H]1N(C(=O)[C@@H](O)[C@H](Cc2ccccc2)NC(=O)[C@@H](NC(=O)[C@@H](NC(C)=O)[C@@H](C)CC)[C@@H](C)CC)CSC1(C)C)C(N)=O` yielded an IC50 against Gag-Pro polyprotein of 249 nM. In experiment [1], the inhibition turned out to be 57%.

Regarding `CC[C@H](C)[C@H](NC(C)=O)C(=O)N[C@H](C(=O)N[C@@H](Cc1ccccc1)[C@H](O)C(=O)N1CSC(C)(C)[C@@H]1C(=O)N[C@H](C(=O)N[C@@H](CCC(N)=O)C(N)=O)[C@@H](C)CC)[C@@H](C)CC`, the midpoint of inhibition against Gag-Pro polyprotein, the IC50, lay at 159 nM. In experiment [1], this compound gave an inhibition of 93%.

Compound `C=CCNC(=O)C1N(C(=O)[C@@H](O)[C@H](Cc2ccccc2)NC(=O)[C@@H](NC(=O)[C@@H](NC(C)=O)c2ccccc2)C(C)(C)C)CSC1(C)C` (some centres undefined) came in with an IC50 against Gag-Pro polyprotein of 131 nM. This compound also yielded an inhibition in experiment [1] of over 99%.

`CC[C@H](C)[C@H](NC(=O)[C@@H]1N(C(=O)[C@@H](O)[C@H](Cc2ccccc2)NC(=O)[C@@H](NC(=O)[C@@H](NC(C)=O)c2ccccc2)C(C)(C)C)CSC1(C)C)C(N)=O` displayed an IC50 against Gag-Pro polyprotein of 144 nM. In experiment [1], this compound showed an inhibition of 93%.

Compound `CC(=O)N[C@H](C(=O)N[C@H](C(=O)N[C@@H](Cc1ccccc1)[C@H](O)C(=O)N1CSC(C)(C)C1C(=O)NCc1ccccc1C)C(C)(C)C)c1ccccc1` (some centres undefined) gave an IC50 on Gag-Pro polyprotein of 103 nM. In experiment [1], this compound yielded an inhibition of 99%.

At Gag-Pro polyprotein, `CC[C@H](C)[C@H](NC(=O)[C@@H](NC(C)=O)c1ccccc1)C(=O)N[C@@H](Cc1ccccc1)[C@H](O)C(=O)N1CSC(C)(C)[C@@H]1C(=O)N[C@H](C(=O)N[C@@H](CCSC)C(N)=O)[C@@H](C)CC` displayed an IC50 of 102 nM. The inhibition in experiment [1] was determined as 98%.

On to `CC[C@H](C)[C@H](NC(C)=O)C(=O)N[C@H](C(=O)N[C@@H](Cc1ccccc1)[C@H](O)C(=O)N1CSC(C)(C)[C@@H]1C(=O)N[C@H](C(=O)N[C@@H](CCSC)C(N)=O)c1ccccc1)[C@@H](C)CC`, for which, at Gag-Pro polyprotein, the IC50 was found to be 123 nM. This compound also displayed an inhibition in experiment [1] of 86%.

On Gag-Pro polyprotein, `CC[C@H](C)[C@H](NC(C)=O)C(=O)N[C@H](C(=O)N[C@@H](Cc1ccccc1)[C@H](O)C(=O)N1CSC(C)(C)[C@@H]1C(=O)N[C@H](C(=O)N[C@@H](CCSC)C(N)=O)[C@@H](C)CC)[C@@H](C)CC` displayed a half-inhibitory concentration (IC50) of 88 nM. In experiment [1], this compound registered an inhibition of 98%.
